The values below are quoted from earlier work in patent US20260034249A1, “COMPOSITIONS AND METHODS FOR MODIFYING FERTILITY” (The Broad Institute, Inc., priority 2023, published 2026).

The target of one data set is T1, MT2 over MT1 receptor (Homo sapiens, UniProt P49286).
T1 sequence (P49286 1-362): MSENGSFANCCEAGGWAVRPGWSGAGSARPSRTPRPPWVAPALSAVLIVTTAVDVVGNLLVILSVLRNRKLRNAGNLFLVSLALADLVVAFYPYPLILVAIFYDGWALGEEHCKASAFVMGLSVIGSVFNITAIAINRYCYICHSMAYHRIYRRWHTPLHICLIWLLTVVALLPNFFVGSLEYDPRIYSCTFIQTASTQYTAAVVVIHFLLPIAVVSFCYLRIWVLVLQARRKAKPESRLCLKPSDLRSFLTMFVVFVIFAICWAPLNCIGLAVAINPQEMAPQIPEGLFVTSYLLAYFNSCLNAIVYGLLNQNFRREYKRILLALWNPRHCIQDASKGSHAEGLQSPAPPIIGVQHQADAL
The conditions noted are these: selectivity MT2 vs MT1.

Regarding `C/C1=C/C(=O)O[C@@H]2C[C@@H](CC[C@H](C)/C=C\C=C\CC1)O[C@@](O)([C@@H]1CSC(=O)N1)C2` [Latrunculin A], the “binding of TMSB4X to actin” value in the data set on TMSB4X is on record as “Sponge toxin that prevents”.
For `CC(=O)NCCc1c(Cc2ccccc2)[nH]c2ccccc12` [Luzindole], the “affinity for MT2 over MT1 receptor” value at MT2 over MT1 receptor is listed as 25-fold affinity for MT2 over.
On to `COc1cc(C2Oc3cc([C@H]4Oc5cc(O)cc(O)c5C(=O)[C@@H]4O)ccc3OC2CO)ccc1O` (some centres unmarked) [Silibin], for which the Vim expression entry in the data set on Vim is listed as “Decreases Vim expression”.
In the case of `C[C@@H]1CC[C@@]2(OC1)O[C@H]1C[C@H]3[C@@H]4CC=C5C[C@@H](O[C@@H]6O[C@H](CO)[C@@H](O[C@@H]7O[C@@H](C)[C@H](O)[C@@H](O)[C@H]7O)[C@H](O)[C@H]6O[C@@H]6O[C@@H](C)[C@H](O)[C@@H](O)[C@H]6O)CC[C@]5(C)[C@H]4CC[C@]3(C)[C@H]1[C@@H]2C` [dioscin], the Vim expression entry with Vim was “Decreases Vim expression”.
`Oc1ccc(C=Cc2cc(O)cc(O)c2)cc1` [resveratrol]: the Vim expression result in the data set on Vim is “Decreases Vim expression”.
